“Also recorded” adds a separate entry of the source.

One assay has as its system monocytes in the RA chip. Put plainly: monocyte migration in the RA chip, live imaging microscopy. In kind it is cell-based, human. Conditions: RA chip primed with TNF-α versus not primed. An excerpt:
Following the established inflammation in the RA chip, work pivoted to whether the RA inflammation can be maintained on-chip for a long period. The RA chip cultured for over 4 days and quantified inflammatory cytokines secretion with IL-6 and GM-CSF as indicator. […] It was previously shown that pre-treatment circulating type I IFN (T1IFN) activity predicts non-response to TNFi (Wampler-Muskardin et al., Front Immunol, 2020). Remarkably, no patient with a ratio >1.3 achieved remission or low disease activity. It is also possible to use single cell gene expression analysis to study blood monocytes in RA patients with high vs. low IFN-β-to-α activity ratio. […] Further on, the behaviors of monocytes in the RA chip are investigated by infusing monocytes into the central sinus of the chip, from which monocytes can distribute into the microvessel network and extravasate out of vessel. […] In addition, the effect of circulating T1IFNs on monocyte activation in the RA chip was studied.
The biomimetic Synovium-on-a-Chip (FIG. 4A) contains two areas to mimic the outer layer (lining layer) and an inner layer (sublining layer) of the synovium. […]
To confirm the role of TNF-α in regulating the RA inflammation, monitored first is monocyte dynamics in the RA device which is primed with or without TNF-α. […]

For assay [1], the system named is RA chip (HUVECs, RA patient derived FLS, RA patient monocyte-derived macrophage). Put plainly: cytokine secretion profile of the RA chip with versus without TNF-α priming. In kind it is cell-based, human. An excerpt: To study blood and synovial cells from RA patients to understand the biological basis for response/non-response to TNFi, disclosed herein is a microfluidics-based 3D vascularized organ-on-a-chip model of RA. The disclosed microphysiological system integrates key features that replicate in vivo synovial architecture and monitors dynamic interactions between the critical cell types of RA, such as monocyte, monocyte-derived macrophage, and fibroblast-like synoviocytes (FLS), in real time with live-cell imaging. The RA chip is compartmentalized into three functional regions, which are partitioned by regularly spaced trapezoid micropillars that confine cell-embedded hydrogels, by balancing surface tension and capillary forces, to mimic the native in vivo tissue architecture of synovitis. The different tissue regions are a central sinus that is lined with human umbilical vein endothelial cells (HUVECs), a synovial sublining, which contains vessels extending from the central sinus, and a synovial lining region (outer ring) connected with four medium reservoirs for medium supply. HUVECs and RA patient derived FLS, and RA patient monocyte-derived macrophage are infused into different regions sequentially and cultured for 7 days to establish a microvessel network and a layered structure of synovium.
With this established synovium structure on-chip, first profiled is the cytokine environment of the engineered RA chip at two conditions (with TNF-α priming versus without) to validate the inflammation status of the RA chip.
Following the established inflammation in the RA chip, work pivoted to whether the RA inflammation can be maintained on-chip for a long period. The RA chip cultured for over 4 days and quantified inflammatory cytokines secretion with IL-6 and GM-CSF as indicator. […] It was previously shown that pre-treatment circulating type I IFN (T1IFN) activity predicts non-response to TNFi (Wampler-Muskardin et al., Front Immunol, 2020). Remarkably, no patient with a ratio >1.3 achieved remission or low disease activity. […]

Take TNF-α: in the assay with monocytes in the RA chip, the “monocyte migration dynamics (migration velocity and distance)” value is on record as “promoted monocyte migration dynamics; also recorded: Enhanced migration behaviors”. For the same substance, in assay [1] (RA chip cultured for over 4 days after transient TNF-α treatment), the “secretion of IL-6 and GM-CSF” value was “generally decreased”. In addition, the “secretion of cytokines (IL-6, GM-CSF, IL-8, MCP-1, MCP-3, MIP-3α)” value in assay [1] (RA chip with TNF-α priming versus without) is given as “increased secretion”. Moreover, in assay [1] (primed with TNF-α at an interval of 2-3 days), the “inflammatory environment of the RA chip” value is given as “maintained over 7 days”.

Source of the values: patent US20260103665A1, “Synovium-on-a-Chip” (New York University, priority 2022, published 2026).
